# Assay results: US20100209931A1, “Compositions for Identifying Novel Compositions for the Treatment of Disease and Methods of Using Same” (priority 2009, published 2010)
# “Also recorded” adds a separate entry of the source.
# What was measured:
# MPNST cell lines = assay: growth of MPNST cell lines; format: cell-based, human
# erg6Δ ira2Δ cells [1] = assay: 96-well plate growth assay, erg6Δ ira2Δ strain; format: cell-based, Saccharomyces cerevisiae; conditions: for sensitivity of growth to compound: erg6Δ ira2Δ, 96-well plate growth assay, optical density, 30° C.
# erg6Δ cells = assay: 96-well plate growth assay, erg6Δ strain; format: cell-based, Saccharomyces cerevisiae
# erg6Δ ira2Δ cells [2] = assay: growth on solid agar media, serial dilutions spotted; conditions: SC plates with compound, three days at 30° C.
# erg6Δ iralΔ ira2Δ = assay: 96-well plate growth assay, erg6Δ ira1Δ ira2Δ strain; conditions: genotype erg6Δ iralΔ ira2Δ; OD 595 nm after 24 hours
# Experimental: Wild type yeast cells (MLY41 a strain derived from the Σ11278b background) and cells having the genotypes shown in Table 2 are grown overnight in SC media, 75 μL of culture at a starting optical density of 0.1 are added to a 96 well plate containing 75 μL of SC media with twice the desired final concentration of the compound of Formula I in 1% DMSO. Plates are incubated in a humidified 30° C. chamber and scanned on an optical density plate reader at 595 nm after 24 hours. […] Strains are treated as described above, and the growth of the culture is monitored for 24 hours at the indicated intervals. The points represent the mean of three wells per condition.
# cells lacking IRA2 = assay: growth of cells lacking IRA2, 96-well plates; format: cell-based, Saccharomyces cerevisiae
smiles,measurement,setting,value
COc1cccc(-c2cc(=O)c3ccccc3o2)c1N [PD98059],growth in MPNST lines,MPNST cell lines,inhibiting growth
same,selective suppression of growth of NF1-/- MPNST cell line relative to NF1+/+ MPNST line,MPNST cell lines; NF1−1− MPNST cell line relative to NF1+/+ MPNST line,selectively suppress growth
same,sensitivity of cells lacking ERG6 and IRA2,erg6Δ ira2Δ cells [1]; 50 μM PD98059,sensitive
same,sensitivity of cells lacking ERG6 and IRA2,"erg6Δ ira2Δ cells [1]; 25 μL (so in the source) PD98059, 24 hours",less sensitive
same,sensitivity of growth to compound,erg6Δ ira2Δ cells [1],sensitized; also recorded: increased sensitivity
same,sensitivity of growth to compound,"erg6Δ cells; erg6Δ alone, 96-well plate growth assay",not sensitive
same,sensitivity of growth on agar media,erg6Δ ira2Δ cells [2],increased sensitivity
CC[C@@]1(O)C(=O)OCc2c1cc1n(c2=O)Cc2cc3ccccc3nc2-1 [camptothecin],sensitivity of growth on agar media,erg6Δ ira2Δ cells [2],differential sensitivity; also recorded: sensitizes
N=C(N)SCc1cn(-c2ccccc2)nc1-c1cccc(Br)c1 [Formula II],sensitivity of growth to compound,erg6Δ ira2Δ cells [1],differential sensitivity
same,Effect of Compound of Formula II,"erg6Δ ira2Δ cells [1]; genotype ira2Δ, erg6Δ, OD 595 nm after 24 hours",Inhibition at 10 uM and 50 uM
same,Effect of Compound of Formula II,"erg6Δ cells; genotype erg6Δ, OD 595 nm after 24 hours",Inhibition at 50 uM
same,Effect of Compound of Formula II (inhibition at concentration),erg6Δ iralΔ ira2Δ,Inhibition at less than 10 uM
same,growth of cells lacking IRA2,cells lacking IRA2; FIG. 7,Growth inhibition
CO[C@H]1C[C@@H]2CC[C@@H](C)[C@@](O)(O2)C(=O)C(=O)N2CCCC[C@H]2C(=O)O[C@H]([C@H](C)C[C@@H]2CC[C@@H](O)[C@H](OC)C2)CC(=O)[C@H](C)/C=C(\C)[C@@H](O)[C@@H](OC)C(=O)[C@H](C)C[C@H](C)/C=C/C=C/C=C/1C [rapamycin],growth inhibition of cells lacking IRA2 by rapamycin alone,"cells lacking IRA2; rapamycin dose used in combination, 24 hours",does not inhibit
